Assays:
[1] = system: TGFβ-induced myofibroblast formation in human fibroblasts; test: Western blot of myofibroblast markers αSMA and calponin in TGFβ-treated human (TED orbital) fibroblasts; format: cell-based; conditions: 250 nM, TGFβ, 72 hours
Procedure: TED fibroblasts were treated with TGFβ (1 ng/ml) in the presence or absence of 10-250 nM salinomycin for 72 hours to allow formation of myofibroblasts. After 72 hours, cells were harvested and analyzed by Western blot. As expected, the fibroblasts robustly responded to TGFβ, expressing high levels of αSMA and calponin (FIG. 2A). […] At 50 nM salinomycin, expression of αSMA was reduced by 4-fold over TGFβ treatment alone. Furthermore, at 250 nM salinomycin, αSMA expression was reduced by approximately 16-fold, to levels at or below untreated fibroblasts. […] Another key role of myofibroblasts in scar formation is the production of collagen. Whether salinomycin could block myofibroblast collagen production was assessed. Cells were treated with TGFβ and salinomycin as above and after 72 hours, culture medium was collected and analyzed for collagen levels using a specific collagen I antibody and slot blot analysis.
To test these four compounds, human fibroblasts were treated with TGFβ in the absence or presence of 250 nM of either salinomycin, narasin, clioquinol or monensin for 72 hours. After treatment, cell lysates were harvested and analyzed for the presence of the myofibroblast markers, αSMA and calponin (FIG. 3B).

[2] = system: human orbital fibroblasts; test: Myofibroblast formation assay (cell images) of Chembridge hits in human orbital fibroblasts; format: cell-based
Procedure: FIG. 22 is a panel of cell images showing efficacy of selected Chembridge hits in myofibroblast formation assays using human orbital fibroblasts. […] Key: SNC: salinomycin control; A1: 5255687; A2:5130037; A4:9040737; B3:9057423; C2:9018748; C3:9048694; C4:9022265.
(§1) Selected Chembridge hits were tested in myofibroblast formation assays using human orbital fibroblasts (FIG. 22) and human lung fibroblasts (FIG. 23).

human lung fibroblasts = test: Myofibroblast formation assay (cell images) of Chembridge hits in human lung fibroblasts; format: cell-based
Procedure: FIG. 23 is a panel of cell images showing efficacy of selected Chembridge hits in myofibroblast formation assays using human lung fibroblasts. […] Key: SNC: salinomycin control; A1: 5255687; A2:5130037; A4:9040737; B3:9057423; C2:9018748; C3:9048694; C4:9022265.
as §1

TGFβ signaling = test: Chembridge collection screen with HEK293-Thy1 SBE-Luc cell line (normalized luciferase activity); format: cell-based, human; conditions: Chembridge collection re-screen
Excerpt: Using the recombinant HEK293-Thy1 SBE-Luc cell line described in the preceding Examples, the Chembridge collection of 20,000 small molecules was screened to identify other small molecules that inhibit TGFβ activity and, thus, may be novel anti-scarring compounds
100 top candidates from the initial screen were re-screened. Numbers indicate the Chembride molecule ID number. The second screen controls for toxicity and non-specific effects by using a constitutive luciferase to normalize results. This assay can be further used in a high throughput fashion to analyze newly derived compounds and monitor structure activity relationships (SAR) to discover new molecules that can serve as the basis for anti-scarring therapeutics.
The two-dimensional structures of the molecules are depicted in the left hand column. Chembridge collection IDs are listed in the second column and the additional columns denote the following (in order): the molecular name, the percent inhibition of the molecule using the screen (100% being a complete inhibition) (% Inhib.), and the internal key (key) for further identification in FIGS. 22 and 23.

Row | SMILES | expression of αSMA and calponin [1] | TGFβ induced myofibroblast formation (cell images) [2] | cell death (cell images) [2] | TGFβ induced myofibroblast formation (cell images) (human lung fibroblasts) | cell death (cell images) (human lung fibroblasts) | % Inhib. (percent inhibition of the molecule using the screen, 100% being a complete inhibition) (TGFβ signaling) [%]
1 | Oc1c(I)cc(Cl)c2cccnc12 [clioquinol] | did not inhibit |  |  |  |  | 
2 | CCOC(=O)c1c(N)sc2c1CCC/C2=N/O [compound 5130037, ethyl 2-amino-7-(hydroxyimino)-4,5,6,7-tetrahydro-1-benzothiophene-3-carboxylate] |  | preventing TGFβ induced myofibroblast formation | not causing cell death | preventing TGFβ induced myofibroblast formation | not causing cell death | 68
3 | Cc1cc(C)c(C(=O)/C=C/c2ccccc2Cl)c(=O)[nH]1 [compound 5255687, 3-[3-(2-chlorophenyl)acryloyl]-4,6-dimethyl-2(1H)-pyridinone] |  | preventing TGFβ induced myofibroblast formation | not causing cell death | preventing TGFβ induced myofibroblast formation | not causing cell death | 70
4 | O=C(Nc1nc2ccccc2[nH]1)c1ccccc1Br [compound 7263741, N-1H-benzimidazol-2-yl-2-bromobenzamide] |  |  |  |  |  | 46
5 | OCc1ccc(Sc2ccc(Cl)cc2)o1 [compound 7586770, {5-[(4-chlorophenyl)thio]-2-furyl}methanol] |  |  |  |  |  | 80
6 | C=CCOc1ccc(NC(=O)c2ccc(CN3CCOCC3)cc2)cc1 [compound 7991998, N-[4-(allyloxy)phenyl]-4-(4-morpholinomethyl)benzamide] |  |  |  |  |  | 60
7 | Cc1ccc(NC2=Nn3c(Cc4ccccc4)nnc3SC2)cc1 [compound 9016022, 3-benzyl-N-(4-methylphenyl)-7H-[1,2,4]triazolo[3,4-b][1,3,4]thiadiazin-6-amine] |  |  |  |  |  | 46
8 | Cc1cc(Cl)c(Cl)cc1S(=O)(=O)NCc1ccncc1 [compound 9018748, 4,5-dichloro-2-methyl-N-(4-pyridinylmethyl)benzenesulfonamide] |  | preventing TGFβ induced myofibroblast formation | not causing cell death | preventing TGFβ induced myofibroblast formation | not causing cell death | 95
9 | O=S(=O)(NCc1ccncc1)c1cccc(F)c1 [compound 9019912, 3-fluoro-N-(4-pyridinylmethyl)benzenesulfonamide] |  |  |  |  |  | 58
10 | Cc1cc(S(=O)(=O)NCc2ccncc2)ccc1F [compound 9021391, 4-fluoro-3-methyl-N-(4-pyridinylmethyl)benzenesulfonamide] |  |  |  |  |  | 66
11 | CCOc1ccc(S(=O)(=O)NCc2ccncc2)c(C)c1C [compound 9022265, 4-ethoxy-2,3-dimethyl-N-(4-pyridinylmethyl)benzenesulfonamide] |  | preventing TGFβ induced myofibroblast formation | not causing cell death | preventing TGFβ induced myofibroblast formation | not causing cell death | 84
12 | CC1=Nc2ccccc2NC2=C1C(=O)CC(c1ccco1)C2 (stereo not shown) [compound 9025733, 3-(2-furyl)-11-methyl-2,3,4,5-tetrahydro-1H-dibenzo[b,e][1,4]diazepin-1-one] |  |  |  |  |  | 84
13 | CC(C)(C)NS(=O)(=O)c1ccc(NC(=O)c2ccncc2)cc1 [compound 9038066, N-{4-[(tert-butylamino)sulfonyl]phenyl}isonicotinamide] |  |  |  |  |  | 54
14 | Cc1nn2c(=O)cc(-c3ccccc3)[nH]c2c1-c1ccc(F)cc1 [compound 9040737, 3-(4-fluorophenyl)-2-methyl-5-phenylpyrazolo[1,5-a]pyrimidin-7(4H)-one] |  | preventing TGFβ induced myofibroblast formation | not causing cell death | preventing TGFβ induced myofibroblast formation | not causing cell death | 63
15 | Cc1ccc(C(C)NC(=O)c2c(Cl)cnn2C)cc1C (stereo not shown) [compound 9043411, 4-chloro-N-[1-(3,4-dimethylphenyl)ethyl]-1-methyl-1H-pyrazole-5-carboxamide] |  |  |  |  |  | 37
16 | COc1ccccc1NC(=O)C#Cc1ccccc1 [compound 9048694, N-(2-methoxyphenyl)-3-phenyl-2-propynamide] |  | preventing TGFβ induced myofibroblast formation | not causing cell death | preventing TGFβ induced myofibroblast formation | not causing cell death | 92
17 | CNC(=O)c1ccccc1OCCOc1ccccc1 [compound 9057423, N-methyl-2-(2-phenoxyethoxy)benzamide] |  | preventing TGFβ induced myofibroblast formation | not causing cell death | preventing TGFβ induced myofibroblast formation | not causing cell death | 51
18 | Cc1nn2c(=O)cc(-c3ccc(Cl)cc3)[nH]c2c1-c1ccccc1 [compound 9080334, 5-(4-chlorophenyl)-2-methyl-3-phenylpyrazolo[1,5-a]pyrimidin-7(4H)-one] |  |  |  |  |  | 41
19 | CC(Nc1ncnc2c1oc1ccccc12)c1ccccc1.Cl (stereo not shown) [compound 9104696, N-(1-phenylethyl)[1]benzofuro[3,2-d]pyrimidin-4-amine hydrochloride] |  |  |  |  |  | 75
20 | CCN(CC)C(=O)c1ccc(Cl)c(N)c1 [compound 9116592, 3-amino-4-chloro-N,N-diethylbenzamide] |  |  |  |  |  | 92
21 | CC[C@@]1([C@@H]2O[C@@H]([C@H]3O[C@@](O)(CO)[C@H](C)C[C@@H]3C)C[C@@H]2C)CC[C@H]([C@]2(C)CC[C@]3(C[C@H](O)[C@@H](C)[C@@H]([C@@H](C)[C@@H](OC)[C@H](C)C(=O)O)O3)O2)O1 [monensin] | inhibited expression of αSMA and calponin |  |  |  |  | 
